According to article PMC7000209, “Novel small molecule modulators of quorum sensing in avian pathogenic Escherichia coli (APEC)” (Virulence, 2018):

Assays:
G. mellonella larvae = assay: Toxicity of SMs in wax moth larvae; assay type: in vivo, Galleria mellonella; conditions: uninfected larvae, 12.5 µg/larva (50 mg/kg), 72 h
Experimental: To confirm that the death of the larvae was not due to the compounds, intrinsic toxicity the AI-2 inhibitors were assessed in a separate experiment. G. mellonella larvae (fifth instar; n = 10) were inoculated with 8.5 µL of SMs (50 mg/kg body weight; 12.5 µg/ larva) into the hemocoel via the last left proleg. Post inoculation, larvae were placed inside sterile petri dishes and incubated in the dark at 37 °C for 72 h and larval survival was monitored every 24 h. Two independent experiments were conducted

APEC O1 in HD-11 cells = assay: Intracellular survival assay, APEC O1 in HD-11 cells; assay type: cell-based, avian pathogenic E. coli (APEC) O1; conditions: MOI 100, 100 µM, 6 h; for reduction of intracellular survival of APEC O1: vs DMSO treated control
Experimental: (§1) The effect of the selected AI-2 inhibitors on the survival of APEC in macrophage cells was tested as described before. Briefly, HD-11 cells was grown as described above and infected with 1 × 10^7 CFU (MOI = 100) of mid-log phase APEC strains (O78, O1 and O2) at 37 °C for 1 h. Cells were washed with PBS and treated with gentamicin (150 μg/mL) for 1 h to kill the extracellular bacteria. The cells were then washed and incubated with 100 µM of each compound in media containing 10 μg/mL of gentamicin at 37 °C for 6 h. Following treatment, cells were washed, lysed with 0.1% Triton X-100 for 5 min, ten-fold serially diluted in PBS and plated on LB agar plates to determine CFUs. Cells treated with chloramphenicol (40 μg/mL) and 1 μL of 100% DMSO were used as controls. The experiment was conducted two times with four replicates in each experiment. Intracellular survival was expressed as the log change of APEC CFUs in the AI-2 inhibitors treated cells.

APEC O1 in THP-1 cells = assay: Intracellular survival assay, APEC O1 in THP-1 cells; assay type: cell-based, avian pathogenic E. coli (APEC) O1; conditions: MOI 100, 100 µM, 6 h, vs DMSO treated control
Experimental: as §1
(§2) Similarly, the intracellular survival assay was also performed in THP-1 cells (ATCC® TIB-202™) as described above. The THP-1 cells were grown in RPMI 1640 medium (Gibco) supplemented with 10% FBS and 2 mM glutamine. In order to differentiate the THP-1 monocyte to macrophage, 100 nM phorbol myristate acetate (PMA; Sigma-Aldrich) was added to the media. The cells (1.4 × 10^5 cells/well) were grown in a 96-well plate in a 5% CO2 incubator at 37 °C for 48 h, infected with APEC (MOI = 100), treated with each compound and the intracellular bacteria was determined as above.

sheep RBCs = conditions: 1 h, 100 µM
Experimental: (§3) The hemolytic activity of the selected AI-2 inhibitors was determined as described before [56]. Briefly, 200 µL of the 10% RBCs (LAMPIRE Biological Laboratories) suspension in PBS was incubated with 100 μM of each compound for 1 h in a 96-well plate. The plate was then centrifuged at 5000 × g for 5 min, placed on ice for 5 min and the absorbance of the supernatant was measured at 540 nm. PBS, 1% DMSO, and 0.1% Triton X-100 were used as controls. Two independent experiments were conducted in triplicate wells in each experiment.

chicken RBCs = conditions: 1 h, 100 µM
Experimental: as §3

HD-11 cells = assay: Lactate dehydrogenase (LDH) cytotoxicity assay, HD-11; assay type: cell-based, chicken; conditions: 100 µM, 24 h
Experimental: The selected 10 AI-2 inhibitors were evaluated for their toxicity to Caco-2 (ATCC® HTB-37™) using LDH assay. Briefly, Caco-2 cells (1.4 × 10^5 cells/well) were grown in a 96-well plate in minimal essential medium (MEM) supplemented with 20% fetal bovine serum (FBS; Gibco), 1% non-essential amino acid (NEAA, Invitrogen Life Technologies) and 1mM sodium pyruvate, at 37 °C in a humidified 5% CO2 incubator for 48 h until a complete monolayer was formed. For LDH assay, cells were washed twice with media containing no FBS/no antibiotics and incubated with 150 µL of fresh media containing 100 μM of each compound at 37 °C for 24 h in a humidified 5% CO2 incubator. Fifty microliters of supernatant was analyzed using LDH Cytotoxicity Assay Kit (Thermo Scientific).
Toxicity was also determined on HD-11 cells (CVCL-4685). The HD-11 cells (1.4 × 10^5 cells/well) were grown in Iscove’s modified Dulbecco’s medium (IMEM; Gibco) supplemented with 2 mM glutamine and 10% FBS at 37 °C in a humidified 5% CO2 for 48 h until a monolayer was completely formed. LDH assay was conducted as described above.

APEC O78 in HD-11 cells = assay: Intracellular survival assay, APEC O78 in HD-11 cells; assay type: cell-based, avian pathogenic E. coli (APEC) O78; conditions: MOI 100, 100 µM, 6 h; for reduction of intracellular survival of APEC O78: vs DMSO treated control
Experimental: as §1

APEC O78 in THP-1 cells = assay: Intracellular survival assay, APEC O78 in THP-1 cells; assay type: cell-based, avian pathogenic E. coli (APEC) O78; conditions: MOI 100, 100 µM, 6 h, vs DMSO treated control
Experimental: as §1
as §2, with “In order to differentiate the THP-1 monocyte to macrophage, 100 nM phorbol myristate acetate (PMA; Sigma-Aldrich) was added to the media.” left out

APEC O2 in THP-1 cells = assay: Intracellular survival assay, APEC O2 in THP-1 cells; assay type: cell-based, avian pathogenic E. coli (APEC) O2; conditions: MOI 100, 100 µM, 6 h; for reduction of intracellular survival of APEC O2: vs DMSO treated control
Experimental: as §1, §2

SMILES: O=[N+]([O-])c1cccc(S(=O)(=O)Nc2ccc(Br)cc2)c1 [C6, N-(4-bromophenyl)-3-nit robenzenesulfonamide]
- survival of larvae treated with compound (toxicity) (G. mellonella larvae): 100%

SMILES: NC(=O)c1ccccc1Nc1cccc(C(F)(F)F)c1 [C3, 2-{[3-(trifluoromethyl)phenyl]amino}benzamide]
- clearance of intracellular APEC O1 (APEC O1 in HD-11 cells): 100%
- reduction of intracellular survival of APEC O1 (APEC O1 in HD-11 cells): ~ 4 logs
- reduction of intracellular survival of APEC O1 (APEC O1 in THP-1 cells): up to 0.9 log
- hemolytic activity (sheep RBCs): 20.6%
- hemolytic activity (chicken RBCs): 6.4%

SMILES: Cc1ccc(CN2CCN(CCCc3ccccc3)CC2)cc1 [C5, 1-(4-methylbenzyl)-4-(3-phenylpropyl)piperazine]
- cytotoxicity (LDH release) (HD-11 cells): less than 10%

SMILES: CCc1ccccc1Nc1nc(-c2c(C)nc3ccccn23)cs1 [C8, N-(2-ethylphenyl)-4-(2-methylimidazo[1,2-a]pyridin-3-yl)-1,3-thiazol-2-amine]
- cytotoxicity (LDH release) (HD-11 cells): less than 10%
- reduction of intracellular survival of APEC O78 (APEC O78 in HD-11 cells): up to 1 logs

SMILES: CS/C(N)=N/N=C/c1cc(C)ccc1O [C4, methyl N'-(2-hydroxy-5-methylbenzylidene)h ydrazonothiocarbamate]
- reduction of intracellular survival of APEC O78 (APEC O78 in HD-11 cells): up to 1 logs

SMILES: COCCN1CCC(CN(Cc2ccncc2)Cc2ccccc2Cl)CC1 [C1, (2-chlorobenzyl){[1-(2-methoxyethyl)-4-piperidinyl]methyl}(4-pyridinylmethyl)amine]
- reduction of intracellular survival of APEC O1 (APEC O1 in THP-1 cells): up to 0.9 log
- survival of larvae treated with compound (toxicity) (G. mellonella larvae): 100%

SMILES: OCCC1CN(C2CCN(c3ccccc3)CC2)CCN1CCCc1ccccc1 (stereo not drawn) [C10, 2-[4-(1-phenyl-4-piperidinyl)-1-(3-phenylpropyl)-2-piperazinyl]ethanol]
- clearance of intracellular APEC O78 (APEC O78 in HD-11 cells): 100%
- reduction of intracellular survival of APEC O78 (APEC O78 in HD-11 cells): ~ 4 logs
- reduction of intracellular survival of APEC O1 (APEC O1 in HD-11 cells): up to 0.9 logs
- reduction of intracellular survival of APEC O78 (APEC O78 in THP-1 cells): up to 0.7 logs
- clearance of intracellular APEC O2 (APEC O2 in THP-1 cells): 100%
- reduction of intracellular survival of APEC O2 (APEC O2 in THP-1 cells): 4 logs
- reduction of intracellular survival of APEC O1 (APEC O1 in THP-1 cells): up to 0.9 log

SMILES: Fc1ccc(CN2CCCN(Cc3nc(-c4ccc(C(F)(F)F)cc4)no3)CC2)cc1 [C9, 1-(4-fluorobenzyl)-4-({3-[4-(trifluoromethyl)phenyl]-1,2,4-oxadiazol-5-yl}methyl)-1,4-diazepane]
- clearance of intracellular APEC O78 (APEC O78 in HD-11 cells): 100%
- reduction of intracellular survival of APEC O78 (APEC O78 in HD-11 cells): ~ 4 logs
- clearance of intracellular APEC O2 (APEC O2 in THP-1 cells): 100%
- reduction of intracellular survival of APEC O2 (APEC O2 in THP-1 cells): 4 logs
- reduction of intracellular survival of APEC O1 (APEC O1 in THP-1 cells): up to 0.9 log
